Experimental data taken from patent US20190314345A1, “CALCINEURIN INHIBITOR AND NON-STEROIDAL ANTI-INFLAMMATORY DRUG TO REDUCE RISK OF POST-IMAGING PANCREATITIS” (UNIVERSITY OF PITTSBURGH - OF THE COMMONWEALTH SYSTEM OF …, priority 2016, published 2019).

Assays:
[1] = test system: duct manipulation (DM) model in mice; test: Duct manipulation (DM) mild model with intraductal Cn inhibitors; format: in vivo, mouse; conditions: FK506 1 μM, CsA 10 μM
Protocol: PEP was induced as previously described^73. Briefly, 100 μl iohexol (Omnipaque, GE Healthcare, Princeton, N.J.) was infused retrograde into the biliopancreatic duct at a rate of 20 μl/min for 5 min. Mice from the ductal manipulation (DM) group received retrograde infusion of 50 μl normal saline into pancreatic ductal at a lower rate of 10 μl/min for 5 min. Mice were euthanized 24 hr after PEP induction by CO2 inhalation and cervical dislocation. Mice from the sham group received laparotomy only. The pancreas, duodenum, and spleen were placed en bloc in a cassette in order to maintain anatomical orientation (FIG. 18A). The tissues were fixed in 4% paraformaldehyde at room temperature for 24 hr. Paraffin-embedded sections were stained with hematoxylin and eosin (HE). Ten systematically selected fields at 200× magnification were graded in a blinded fashion from the head of the pancreas, which was identified by its juxtaposition to the duodenum. The grading score gave equal weight (from 0 to 3) for edema, inflammatory infiltration, and necrosis, as described^5. Edema indices were further delineated objectively by performing intensity thresholding using ImageJ software (NIH, Bethesda, Md.). […] Labelled areas within the parenchyma were marked as edema, and their surface area was calculated as a percentage of the total parenchymal area.

calcineurin [2] = test: NFAT-luciferase activity assay in mouse primary acinar cells; format: cell-based; conditions: 30 min pre-treatment; FK506 24 μM, CsA 16 μM, BAPTA-AM 64 μM
Protocol: (§1) Acinar cells were infected with Ad-NFAT-luciferase following a previously described procedure^10, 15, 16. The construct includes a luciferase gene placed downstream of an IL-4 promoter which contains nine tandem NFAT binding sites^10. Acinar cells were incubated with the NFAT-driven luciferase adenovirus for 1.5 hr prior to stimulation. All of the stated inhibitors were added for 30 min prior to stimulation with RC. NFAT-luciferase was measured using the luciferase assay system. Briefly, cells were spun at 1,000 rpm for 5 min, washed with PBS, and lysed using reporter lysis 5× buffer (Promega #E397A, Madison, Wis.). Samples were vortexed and spun at 12,000 g for 2 min. Supernatant was plated, and luminescence was measured using a Synergy H1 plate reader (BioTek, Winooski, Vt.) and normalized to total protein.

pancreatic acinar cells = test: ATP level measurements in acinar cells; format: cell-based, mouse; conditions: RC 12% for 3.5 hr
Protocol: Following isolation, pancreatic acinar cells were cultured in DMEM/F12 Medium (0.5 ml/well of a 48-well plate) at 37° C. water bath and treated with RC±FK506. Cells were collected at indicated time points and lysed in 100 lysis buffer (100 mM Tris pH 7.75, 4 mM EDTA). ATP levels were measured from 20 μl aliquots of acinar cell lysates using the ENLITEN luciferase/luciferin reagent (Promega catalog no. FF2021).

[3] = test system: IL-6, GADD45B, IL-1β expression; test: Real-time PCR gene expression from the pancreatic head; format: in vivo, mouse; conditions: RC exposure, with or without FK506 pretreatment
Protocol: Total RNA from the pancreatic head was obtained by homogenizing 40 mg of tissue in 2 ml of TRIzol reagent (Life Technologies; Grand Island N.Y.) at 4° C. and immediately flash frozen in liquid nitrogen. Samples were thawed on ice and centrifuged at 12,000×g for 10 min at 4° C. The supernatant was diluted with 200 μl of chloroform and centrifuged at 12,000×g for 15 min at 4° C. The upper aqueous phase was treated with 0.5 ml of isopropanol and centrifuged at 10,000×g for 10 min at 4° C. The pellet was resuspended with 150 μl of 75% ethanol and centrifuged at 7500×g for 5 min at 4° C. The pellet was air-dried and dissolved in 100 μl of nuclease-free water. Total RNA samples were used to generate cDNA using the iScript Advanced cDNA synthesis Kit (Bio Rad; Hercules, Calif.).
Quantitative real-time PCR (rtPCR) was performed to determine the relative expression of the cytokines IL-6 and IL-1β as well as the cell growth arrest and DNA-damage inducible gene GADD45B. The primer pairs for each as well as a GAPDH control were obtained as part of the PrimePCR-PreAMP SYBR Green Assay (Bio Rad; unique assay ID # qMmuCEP0054186, qMmuCID0005641, qMmuCEP0039581). rtPCR reactions were carried out in 20 μl volume reactions using the SsoAdvanced Universal Supermix SYBR Green system (Bio Rad). The reactions contained 1× SsoAdvanced Universal SYBR Green Supermix, 300 nM forward Primer, 300 nM reverse primer and 100 ng cDNA. rtPCR conditions were 95° C. for 10 sec and 60° C. for 30 sec for 35 cycles on a Bio Rad CFX96 Touch thermocycler (Bio Rad). Results for the expression of mRNA were normalized to expression of […] and are represented relative to expression levels for each of the control groups.

calcineurin [4] = test: NFAT-luciferase activity assay in AR42J cells; format: cell-based; conditions: pretreatment; FK506 24 μM, CsA 16 μM, U73122 5 μM, 2-APB 100 μM, BAPTA 64 μM
Protocol: as §1

primary acinar cells = test: Cell necrosis assay (propidium iodide uptake) in primary acinar cells; format: cell-based, mouse; conditions: 6 hr incubation; U73122 5 μM, 2-APB 100 μM, BAPTA 64 μM, IKK-2 20 μM, FK506 24 μM, CsA 16 μM
Protocol: Acinar cells were incubated in a 48-well plate with 50 μg/ml of propidium iodide (PI) for 30 min prior to addition of RC. Fluorescence was measured at 536 nm excitation and 617 nm emission wavelengths over time a time course of up to 6 hr. Fluorescence was measured after cell lysis with 0.5% Triton-X 100 was used to normalize the results relative to total DNA.

`C=CC[C@@H]1/C=C(\C)C[C@H](C)C[C@H](OC)[C@H]2O[C@@](O)(C(=O)C(=O)N3CCCC[C@H]3C(=O)O[C@H](/C(C)=C/[C@@H]3CC[C@@H](O)[C@H](OC)C3)[C@H](C)[C@@H](O)CC1=O)[C@H](C)C[C@@H]2OC` [FK506, tacrolimus] was tested, and the “effect on mild histological damage seen with DM” value [1] was “did not affect”, the “effect on RC-induced rise in NFAT-luciferase” value (calcineurin [2]) was “largely prevented” and the “effect on RC-induced ATP depletion” value (pancreatic acinar cells) was “failed to prevent ATP depletion”. The “gene expression of GADD45B” value [3] was “significant reduction”, the “gene expression of IL-1β” value [3] was “trend toward reduction” and the “gene expression of IL-6” value [3] was “significant reduction”. For the same compound, the “effect on RC (6%)-induced NFAT-luciferase activity” value (calcineurin [4]) was “prevented” and the “effect on RC (12%)-induced acinar cell injury (PI uptake)” value (primary acinar cells) was “prevented”.
